Experiments:
Settings in all cases: 48 h
NOMO1 [1] = assay: AUC of viability dose-response curve (% viability x log10 dose units); higher = less sensitive
Method in brief: (§1)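 Viability of medium-adapted leukemia cells was measured by CellTiter-Glo One luminescence after 48 h at 37°C with library compounds in DMSO. Doses were 11 threefold steps from 47 μM to 0.79 nM, in 1536-well plates at 500 or 1000 cells/well. Signals were normalised per plate to DMSO and cell-free wells and fitted with a four-parameter log-logistic model on log10 dose. Area under the curve was integrated by trapezoidal rule, with curves exceeding full viability scaled and failed quality-control curves removed.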

P12-Ichikawa [2] = assay: as above
Method in brief: as §1

SEM cells [3] = assay: as above
Method in brief: as §1

NOMO1 [4] = assay: cell viability relative to DMSO control; higher = less cytotoxic
Method in brief: (§2)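 Leukemia cells (NOMO1 or SEM, 500 cells/well; P12-Ichikawa, 1000 cells/well) were seeded in 5 μl in 1536-well plates after at least four passages of adaptation to each medium. They received library compounds in DMSO by pin dosing, 11 threefold points from 47 μM to 0.79 nM. Luminescence with CellTiter-Glo One was read after 48 h at 37°C. Viability is stated per plate relative to DMSO wells, with cell-free wells as background.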

P12-Ichikawa [5] = assay: as above
Method in brief: as §2

SEM cells [6] = assay: as above
Method in brief: as §2

CN1CCN(c2cccc(Nc3nc4c(-c5ccc([S+](C)(=O)[O-])cc5)cccn4n3)c2)CC1
AUC of viability dose-response curve
Settings | NOMO1 [1] | P12-Ichikawa [2] | SEM cells [3]
HPLM + 10% dialyzed FBS | 438 | 453 | 379
RPMI 5 mM glucose + 10% FBS | 449 | 427 | 375
RPMI 5 mM glucose + 10% dialyzed FBS | 450 | 435 | 372

C[C@@H](Oc1cc(-n2cnc3ccc(CN4CCN(C)CC4)cc32)sc1C(N)=O)c1ccccc1C(F)(F)F
AUC of viability dose-response curve
Settings | NOMO1 [1] | P12-Ichikawa [2] | SEM cells [3]
HPLM + 10% dialyzed FBS | 280 | 208 | 233
RPMI 5 mM glucose + 10% FBS | 246 | 202 | 214
RPMI 5 mM glucose + 10% dialyzed FBS | 255 | 214 | 234

c1ccc2c(-c3cnn4cc(-c5ccc(N6CCNCC6)cc5)cnc34)ccnc2c1
cell viability [%]
Settings | NOMO1 [4] | P12-Ichikawa [5] | SEM cells [6]
HPLM + 10% dialyzed FBS, 0.000781 µM | 79.8 | 97.9 | 75.6
HPLM + 10% dialyzed FBS, 0.00234 µM | 77.8 | 103 | 78.2
HPLM + 10% dialyzed FBS, 0.00702 µM | 134 | 150 | 121
HPLM + 10% dialyzed FBS, 0.0211 µM | 166 | 144 | 125
HPLM + 10% dialyzed FBS, 0.0632 µM | 144 | 151 | 139
HPLM + 10% dialyzed FBS, 0.19 µM | 143 | 141 | 130
HPLM + 10% dialyzed FBS, 0.569 µM | 146 | 146 | 122
HPLM + 10% dialyzed FBS, 1.71 µM | 121 | 126 | 100
HPLM + 10% dialyzed FBS, 5.12 µM | 114 | 125 | 2.9
HPLM + 10% dialyzed FBS, 15.4 µM | 111 | 121 | 1.26
HPLM + 10% dialyzed FBS, 46.1 µM | 90.3 | 59.3 | 2.65
RPMI 5 mM glucose + 10% FBS, 0.000781 µM | 93.8 | 88.7 | 84
RPMI 5 mM glucose + 10% FBS, 0.00234 µM | 91.3 | 91.2 | 71.6
RPMI 5 mM glucose + 10% FBS, 0.00702 µM | 139 | 161 | 140
RPMI 5 mM glucose + 10% FBS, 0.0211 µM | 133 | 182 | 138
RPMI 5 mM glucose + 10% FBS, 0.0632 µM | 132 | 191 | 153
RPMI 5 mM glucose + 10% FBS, 0.19 µM | 137 | 166 | 122
RPMI 5 mM glucose + 10% FBS, 0.569 µM | 128 | 142 | 121
RPMI 5 mM glucose + 10% FBS, 1.71 µM | 126 | 123 | 97.1
RPMI 5 mM glucose + 10% FBS, 5.12 µM | 122 | 111 | 61
RPMI 5 mM glucose + 10% FBS, 15.4 µM | 120 | 107 | 7.66
RPMI 5 mM glucose + 10% FBS, 46.1 µM | 87.7 | 2.89 | 3.32
RPMI 5 mM glucose + 10% dialyzed FBS, 0.000781 µM | 83.9 | 96 | 69
RPMI 5 mM glucose + 10% dialyzed FBS, 0.00234 µM | 72 | 96.6 | 72.2
RPMI 5 mM glucose + 10% dialyzed FBS, 0.00702 µM | 122 | 175 | 118
RPMI 5 mM glucose + 10% dialyzed FBS, 0.0211 µM | 120 | 169 | 147
RPMI 5 mM glucose + 10% dialyzed FBS, 0.0632 µM | 173 | 168 | 151
RPMI 5 mM glucose + 10% dialyzed FBS, 0.19 µM | 150 | 164 | 142
RPMI 5 mM glucose + 10% dialyzed FBS, 0.569 µM | 141 | 168 | 114
RPMI 5 mM glucose + 10% dialyzed FBS, 1.71 µM | 144 | 138 | 89.2
RPMI 5 mM glucose + 10% dialyzed FBS, 5.12 µM | 146 | 119 | 66.7
RPMI 5 mM glucose + 10% dialyzed FBS, 15.4 µM | 117 | 120 | 45.9
RPMI 5 mM glucose + 10% dialyzed FBS, 46.1 µM | 77.8 | 3.35 | 3.66

SEM cells [3]
Settings | AUC of viability dose-response curve
HPLM + 10% dialyzed FBS | 355
RPMI 5 mM glucose + 10% FBS | 379
RPMI 5 mM glucose + 10% dialyzed FBS | 394

CCC(C)N(C)C(=O)c1cc2ccccc2c(-c2ccccc2Cl)n1 (centres undefined)
AUC of viability dose-response curve
Settings | NOMO1 [1] | P12-Ichikawa [2] | SEM cells [3]
HPLM + 10% dialyzed FBS | 452 | 462 | 461
RPMI 5 mM glucose + 10% FBS | 473 | 471 | 460
RPMI 5 mM glucose + 10% dialyzed FBS | 453 | 463 | 464

O=C(NCc1ccccc1)[C@H](Cc1ccccc1)NC(=O)[C@H]1O[C@@H]1C(=O)NCCc1ccc(O)cc1
AUC of viability dose-response curve
Settings | NOMO1 [1] | P12-Ichikawa [2] | SEM cells [3]
HPLM + 10% dialyzed FBS | 431 | 468 | 464
RPMI 5 mM glucose + 10% FBS | 459 | 461 | 463
RPMI 5 mM glucose + 10% dialyzed FBS | 425 | 463 | 453

CCC1=C2C=C(OC(=O)N3CCC(CC3)N4CCCCC4)C=CC2=NC\5=C1CN6C(=O)\C7=C(/C=C56)[C@@](O)(CC)C(=O)OC7
SEM cells [6], RPMI 5 mM glucose + 10% FBS
Settings | cell viability [%]
0.000781 µM | 110
0.00234 µM | 127
0.00702 µM | 104
0.0211 µM | 106
0.0632 µM | 49.5
0.19 µM | 104
0.569 µM | 107
1.71 µM | 65.2
5.12 µM | 15.4
15.4 µM | 13.1
46.1 µM | 9.69

AUC of viability dose-response curve
Settings | NOMO1 [1] | P12-Ichikawa [2] | SEM cells [3]
HPLM + 10% dialyzed FBS | 380 | 324 | 366
RPMI 5 mM glucose + 10% FBS | 380 | 313 | 356
RPMI 5 mM glucose + 10% dialyzed FBS | 380 | 326 | 353

COC1=C(OC)C(=O)C(C/C=C(\C)CC/C=C(\C)CC/C=C(\C)CC/C=C(\C)CC/C=C(\C)CC/C=C(\C)CC/C=C(\C)CC/C=C(\C)CC/C=C(\C)CCC=C(C)C)=C(C)C1=O
cell viability [%], SEM cells [6]
Settings | HPLM + 10% dialyzed FBS | RPMI 5 mM glucose + 10% dialyzed FBS
0.000781 µM | 104 | 104
0.00234 µM | 101 | 129
0.00702 µM | 97.5 | 120
0.0211 µM | 92.4 | 106
0.0632 µM | 129 | 112
0.19 µM | 110 | 124
0.569 µM | 60.3 | 56.4
1.71 µM | 53.3 | 43.4
5.12 µM | 138 | 123
15.4 µM | 128 | 126
46.1 µM | 124 | 120

AUC of viability dose-response curve
Settings | NOMO1 [1] | P12-Ichikawa [2] | SEM cells [3]
HPLM + 10% dialyzed FBS | 461 | 453 | 442
RPMI 5 mM glucose + 10% FBS | 453 | 435 | 469
RPMI 5 mM glucose + 10% dialyzed FBS | 466 | 461 | 456
